Assay results from patent US20140135310A1, “SULPHONAMIDE DERIVATIVES OF ALICYCLIC AMINES FOR THE TREATMENT OF CENTRAL NERVOUS SYSTEM DISEASES” (Adamed Sp. z o.o., priority 2011, published 2014).

Legend:
[1] = biological target: T1, α2C adrenergic receptors (Homo sapiens, UniProt P18825); assay: Radioligand binding assay, adrenergic α2C receptors; conditions: test compound 1×10^−6 M
T1 construct: expressed in transfected cells; host or cells: CHO cells
T1 sequence (P18825 1-462): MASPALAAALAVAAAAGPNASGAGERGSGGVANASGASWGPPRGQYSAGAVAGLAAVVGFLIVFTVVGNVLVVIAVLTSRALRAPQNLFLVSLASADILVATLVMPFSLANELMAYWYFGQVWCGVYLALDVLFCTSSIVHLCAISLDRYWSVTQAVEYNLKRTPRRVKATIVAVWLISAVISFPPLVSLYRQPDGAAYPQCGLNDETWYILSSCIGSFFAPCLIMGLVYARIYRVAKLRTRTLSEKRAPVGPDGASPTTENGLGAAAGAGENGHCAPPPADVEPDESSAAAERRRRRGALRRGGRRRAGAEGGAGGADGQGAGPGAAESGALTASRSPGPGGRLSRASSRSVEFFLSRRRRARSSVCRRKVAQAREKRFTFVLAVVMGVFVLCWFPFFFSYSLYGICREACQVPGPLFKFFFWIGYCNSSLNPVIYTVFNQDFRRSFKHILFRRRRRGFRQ
Procedure, shortened: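 Competitive radioligand binding at human α2C receptors, with scintillation counting. Nonspecific binding defined with excess unlabelled ligand; results given as % inhibition of control specific binding. IC50 from Hill-equation fits of competition curves; Ki via Cheng-Prusoff using radioligand concentration and Scatchard-derived KD.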

[2] = system: σ receptors; assay: Radioligand binding assay, σ receptors; conditions: rat cerebral cortex, [3H]DTG 8 nM
Text: The specific ligand binding to the receptors is defined as the difference between the total binding and the non-specific binding determined in the presence of the excess of unlabelled ligand.
The results are expressed as a percent of control specific binding ((measured specific binding/control specific binding)×100) and as a percent inhibition of control specific binding (100−((measured specific binding/control specific binding)×100)) obtained in the presence of the test compounds. The specific ligand binding to the receptors is defined as the difference between the total binding and the nonspecific binding determined in the presence of an excess of unlabelled ligand. Scintillation counting was the method of detection of ligand binding. The IC50 values (concentration causing a half-maximal inhibition of control specific binding) were determined by non-linear regression analysis of the competition curves generated with mean replicate values using Hill equation curve fitting (Y=D+[(A−D)/(1+(C/C50)nH)], where Y=specific binding, D=minimum specific binding, A=maximum specific binding, C=compound concentration, C50=IC50, and nH=slope factor). […] The inhibition constants (Ki) were calculated using the Cheng Prusoff equation (Ki=IC50/(1+(L/KD)), where L=concentration of radioligand in the assay, and KD=affinity of the radioligand for the receptor). A scatchard plot was used to determine the Kd.

[3] = biological target: T2, 5-HT2C receptor (Homo sapiens, UniProt P28335); assay: Radioligand binding assay, serotoninergic 5-HT2C receptors; conditions: test compound 1×10^−6 M
T2 construct: expressed in transfected cells; host or cells: HEK-293 cells
T2 sequence (P28335 33-458): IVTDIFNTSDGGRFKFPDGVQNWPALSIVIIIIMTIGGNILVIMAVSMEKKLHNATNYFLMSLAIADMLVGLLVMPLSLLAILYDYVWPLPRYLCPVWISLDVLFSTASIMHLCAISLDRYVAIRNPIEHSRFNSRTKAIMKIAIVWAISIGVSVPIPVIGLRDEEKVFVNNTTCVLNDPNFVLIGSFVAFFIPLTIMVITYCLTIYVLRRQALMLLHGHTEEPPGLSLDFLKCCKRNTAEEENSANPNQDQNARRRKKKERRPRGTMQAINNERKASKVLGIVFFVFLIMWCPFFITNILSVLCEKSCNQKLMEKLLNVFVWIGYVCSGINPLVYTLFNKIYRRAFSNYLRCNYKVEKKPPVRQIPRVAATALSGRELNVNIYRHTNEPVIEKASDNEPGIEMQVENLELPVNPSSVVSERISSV

[4] = biological target: T3, 5-HT7 receptor (Homo sapiens, UniProt P34969); assay: Radioligand binding assay, serotoninergic 5-HT7 receptors; conditions: binding assay result in %, Table 5a;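 further: test compound at 1 µM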
T3 construct: purchased PerkinElmer
Procedure, shortened: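 Competition binding at human 5-HT7 receptors with a radioligand, detected by scintillation counting; non-specific binding was defined with excess unlabelled ligand. IC50 came from Hill-equation fits of competition curves, and Ki from Cheng–Prusoff using radioligand concentration and Scatchard-derived KD.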

[5] = biological target: T4, 5-HT1A receptor (rat hippocampus) (Rattus norvegicus, UniProt P19327); assay: Radioligand binding assay, serotoninergic 5-HT1A receptors; conditions: binding assay result in %, Table 5a;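 further: test compound at 1 µM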
T4 construct: hippocampus; from tissue; host or cells: rat hippocampus
T4 sequence (P19327 1-422): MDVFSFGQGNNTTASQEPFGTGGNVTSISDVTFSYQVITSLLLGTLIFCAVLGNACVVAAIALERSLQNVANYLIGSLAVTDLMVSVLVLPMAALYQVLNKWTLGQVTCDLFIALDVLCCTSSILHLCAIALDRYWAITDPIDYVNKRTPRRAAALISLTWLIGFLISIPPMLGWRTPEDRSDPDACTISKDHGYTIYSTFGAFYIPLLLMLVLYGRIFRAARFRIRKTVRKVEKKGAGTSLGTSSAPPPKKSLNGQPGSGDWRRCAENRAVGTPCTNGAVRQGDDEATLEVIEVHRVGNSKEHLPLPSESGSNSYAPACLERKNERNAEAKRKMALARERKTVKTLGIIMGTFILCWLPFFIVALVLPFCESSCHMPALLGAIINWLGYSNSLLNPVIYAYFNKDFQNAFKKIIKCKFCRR

T3 sequence (P34969 whole entry): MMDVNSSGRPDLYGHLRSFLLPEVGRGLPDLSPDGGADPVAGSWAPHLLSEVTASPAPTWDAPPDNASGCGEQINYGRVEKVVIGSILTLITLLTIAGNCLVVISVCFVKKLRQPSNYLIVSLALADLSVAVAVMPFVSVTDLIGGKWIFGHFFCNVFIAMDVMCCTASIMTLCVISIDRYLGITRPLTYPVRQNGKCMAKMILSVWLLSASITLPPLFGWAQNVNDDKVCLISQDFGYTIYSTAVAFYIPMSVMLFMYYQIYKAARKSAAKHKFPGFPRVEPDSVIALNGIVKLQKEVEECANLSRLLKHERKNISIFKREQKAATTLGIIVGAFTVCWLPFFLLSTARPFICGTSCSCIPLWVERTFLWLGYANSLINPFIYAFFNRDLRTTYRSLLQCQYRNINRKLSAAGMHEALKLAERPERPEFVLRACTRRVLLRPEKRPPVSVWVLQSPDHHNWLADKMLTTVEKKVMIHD

Row | Compound | α2C [%] [1] [%] | σ [%] [2] [%] | 5-HT2C [%] [3] [%] | 5-HT7 [%] [4] [%] | 5-HT1A [%] [5] [%] | inhibition at 1 µM [1] [%] | inhibition at 1 µM [3] [%] | inhibition at 1 µM [4] [%] | inhibition at 1 µM [5] [%]
1 | N-[1-[3-(6-Fluoro-1,2-benzoxazol-3-yl)propyl]pyrrolidin-3-yl]-1-methyl-imidazole-4-sulphonamide [Compound 217] | 96 | 86 | 67 | 97 | 54 | – | – | – | –
2 | Cn1ccc2cc(S(=O)(=O)NCC3CCN(CCOc4cccc5c4OCCO5)C3)ccc21 (centres unmarked) [Compound 308, N-[[1-[2-(2,3-Dihydro-1,4-benzodioxin-5-yloxy)ethyl]pyrrolidin-3-yl]methyl]-1-methyl-indole-5-sulphonamide] | – | 91 | – | – | – | 96 | 61 | 83 | 98
3 | O=S(=O)(NC1CCN(CCCc2c[nH]c3ccc(F)cc23)C1)c1ccc(F)cc1 (centres unmarked) [Compound 75, 4-Fluoro-N-[1-[3-(5-fluoro-1H-indol-3-yl)propyl]pyrrolidin-3-yl]benzene-sulphonamide] | – | 75 | – | – | – | 76 | 83 | 90 | 100
4 | O=S(=O)(NC1CCN(CCOc2nsc3ccccc23)C1)c1ccc2ccccc2c1 (centres unmarked) [Compound 39, N-[1-[2-(1,2-Benzothiazol-3-yloxy)ethyl]pyrrolidin-3-yl]naphthalene-2-sulphonamide] | – | 54 | – | – | – | 92 | 74 | 90 | 99
5 | Cc1cc(S(=O)(=O)N[C@H]2CCN(CCCc3noc4cc(F)ccc34)C2)c(C)s1 [Compound 223, N-[(3S)-1-[3-(6-Fluoro-1,2-benzoxazol-3-yl)propyl]pyrrolidin-3-yl]-2,5-dimethyl-thiophene-3-sulphonamide] | – | 89 | – | – | – | 60 | 65 | 100 | 49
6 | COc1ccc2cc(S(=O)(=O)NC3CCN(CCCc4noc5cc(F)ccc45)C3)ccc2c1 (centres unmarked) [Compound 227, N-[1-[3-(6-Fluoro-1,2-benzoxazol-3-yl)propyl]pyrrolidin-3-yl]-6-methoxy-naphthalene-2-sulphonamide] | – | 59 | – | – | – | 90 | 82 | 91 | 62
7 | Cc1cc(S(=O)(=O)NCC2CCN(CCOc3cccc4c3OCCO4)C2)c(C)s1 (centres unmarked) [Compound 312, N-[[1-[2-(2,3-Dihydro-1,4-benzodioxin-5-yloxy)ethyl]pyrrolidin-3-yl]methyl]-2,5-dimethylthiophene-3-sulphonamide] | – | 92 | – | – | – | 94 | 55 | 86 | 98
8 | O=S(=O)(NC1CCN(CCCc2c[nH]c3ccc(Cl)cc23)C1)c1cccc(Cl)c1 (centres unmarked) [Compound 84, 3-Chloro-N-[1-[3-(5-chloro-1H-indol-3-yl)propyl]pyrrolidin-3-yl]benzenesulphonamide] | – | 59 | – | – | – | 105 | 88 | 98 | 99
9 | O=S(=O)(NCC1CN(CCOc2cccc3c2OCCO3)C1)c1cc2ccccc2o1 [Compound 186, N-[[1-[2-(2,3-Dihydro-1,4-benzodioxin-5-yloxy)ethyl]azetidin-3-yl]methyl]-benzofuran-2-sulphonamide] | – | 84 | – | – | – | 96 | 79 | 97 | 98
10 | O=S(=O)(N[C@@H]1CCN(CCCc2noc3cc(F)ccc23)C1)c1csc2ccccc12 [Compound 224, N-[(3R)-1-[3-(6-Fluoro-1,2-benzoxazol-3-yl)propyl]pyrrolidin-3-yl]benzothiophene-3-sulphonamide] | – | 91 | – | – | – | 79 | 71 | 103 | 76
11 | O=S(=O)(NC1CCN(CCCc2noc3cc(F)ccc23)C1)c1cc2ccccc2o1 (centres unmarked) [Compound 216, N-[1-[3-(6-Fluoro-1,2-benzoxazol-3-yl)propyl]pyrrolidin-3-yl]benzofuran-2-sulphonamide] | – | 88 | – | – | – | 80 | 62 | 99 | 35
12 | Cc1c(S(=O)(=O)NC2CCN(CCCc3noc4cc(F)ccc34)C2)sc2ccc(F)cc12 (centres unmarked) [Compound 28, 5-Fluoro-N-[1-[3-(6-fluoro-1,2-benzoxazol-3-yl)propyl]pyrrolidin-3-yl]-3-methyl-benzothiophene-2-sulphonamide] | – | 70 | – | – | – | 93 | 72 | 94 | 61
13 | O=S(=O)(NC1CCN(CCCc2noc3cc(F)ccc23)C1)c1ccc(Cl)c(F)c1 (centres unmarked) [Compound 11, 4-Chloro-3-fluoro-N-[1-[3-(6-fluoro-1,2-benzoxazol-3-yl)propyl]-pyrrolidin-3-yl]benzene-sulphonamide] | – | 74 | – | – | – | 71 | 27 | 97 | 60
14 | O=S(=O)(NCC1CN(CCCc2noc3cc(F)ccc23)C1)c1ccc(-c2ccccc2)cc1 [Compound 135, N-[[1-[3-(6-Fluoro-1,2-benzoxazol-3-yl)propyl]azetidin-3-yl]methyl]-4-phenyl-benzenesulphonamide] | – | 94 | – | – | – | 95 | 86 | 97 | 77
15 | O=S(=O)(N[C@H]1CCN(CCCc2noc3cc(F)ccc23)C1)c1cc2ccc(Cl)cc2s1 [Compound 199, 6-Chloro-N-[(3S)-1-[3-(6-fluoro-1,2-benzoxazol-3-yl)propyl]pyrrolidin-3-yl]benzothiophene-2-sulphonamide] | – | 80 | – | – | – | 82 | 83 | 94 | 38
16 | O=S(=O)(NC1CN(CCOc2cccc3c2OCCO3)C1)c1cccc(F)c1 [Compound 89, N-[1-[2-(2,3-Dihydro-1,4-benzodioxan-8-yloxy)ethyl]azetidin-3-yl]-3-fluoro-benzenesulphonamide] | 69 | 24 | 53 | 96 | 98 | – | – | – | –
